ChEMBL document CHEMBL3774317, “Design and synthesis of novel tamoxifen analogues that avoid CYP2D6 metabolism” (Eur J Med Chem, 2016)

Experiments:
Type in all cases: functional
[1] = Cytotoxicity against human OVCAR4 cells assessed as cell growth at 5 uM after 48 hrs by SRB assay; conditions: OVCAR-4, 48 h, read-out: Activity
[2] = Cytotoxicity against human UACC62 cells assessed as cell growth at 50 uM after 48 hrs by SRB assay; conditions: UACC-62, 48 h, read-out: Activity
[3] = test system: SK-MEL-2; test: Cytotoxicity against human SK-MEL-2 cells assessed as cell growth at 5 nM after 48 hrs by SRB assay; conditions: SK-MEL-2, 48 h, read-out: Activity
[4] = test system: NCI-H522; test: Cytotoxicity against human NCI-H522 cells assessed as cell growth at 5 uM after 48 hrs by SRB assay; conditions: NCI-H522, 48 h, read-out: Activity
[5] = test system: A549; test: Cytotoxicity against human A549 cells assessed as cell growth at 50 uM after 48 hrs by SRB assay; conditions: A549, 48 h, read-out: Activity
[6] = Cytotoxicity against human COLO205 cells assessed as cell growth at 5 uM after 48 hrs by SRB assay; conditions: COLO 205, 48 h, read-out: Activity
[7] = Cytotoxicity against human BT549 cells assessed as cell growth at 5 nM after 48 hrs by SRB assay; conditions: BT-549, 48 h, read-out: Activity
[8] = Cytotoxicity against human SW620 cells assessed as cell growth at 50 uM after 48 hrs by SRB assay; conditions: SW-620, 48 h, read-out: Activity
[9] = test system: SR; test: Cytotoxicity against human SR cells assessed as cell growth at 0.5 uM after 48 hrs by SRB assay; conditions: read-out: Activity
[10] = Cytotoxicity against human BT549 cells assessed as cell growth at 5 uM after 48 hrs by SRB assay; conditions: BT-549, 48 h, read-out: Activity
[11] = Cytotoxicity against human HL-60(TB) cells assessed as cell growth at 50 nM after 48 hrs by SRB assay; conditions: HL-60, 48 h, read-out: Activity
[12] = test system: HT-29; test: Cytotoxicity against human HT-29 cells assessed as cell growth at 50 nM after 48 hrs by SRB assay; conditions: HT-29, 48 h, read-out: Activity
[13] = Cytotoxicity against human HOP62 cells assessed as cell growth at 0.5 uM after 48 hrs by SRB assay; conditions: HOP-62, 48 h, read-out: Activity
[14] = test system: SK-MEL-28; test: Cytotoxicity against human SK-MEL-28 cells assessed as cell growth at 50 nM after 48 hrs by SRB assay; conditions: SK-MEL-28, 48 h, read-out: Activity
[15] = test system: MDA-MB-231; test: Cytotoxicity against human MDA-MB-231 cells assessed as cell growth at 0.5 uM after 48 hrs by SRB assay; conditions: MDA-MB-231, 48 h, read-out: Activity
[16] = test system: A549; test: Cytotoxicity against human A549 cells assessed as cell growth at 5 uM after 48 hrs by SRB assay; conditions: A549, 48 h, read-out: Activity
[17] = Cytotoxicity against human SF295 cells assessed as cell growth at 5 nM after 48 hrs by SRB assay; conditions: SF-295, 48 h, read-out: Activity
[18] = Cytotoxicity against human SKOV3 cells assessed as cell growth at 10^-6 M after 48 hrs by SRB assay; conditions: SK-OV-3, 48 h, read-out: Activity
[19] = test system: A498; test: Cytotoxicity against human A498 cells assessed as cell growth at 10^-4 M after 48 hrs by SRB assay; conditions: A498, 48 h, read-out: Activity
[20] = test system: A549; test: Cytotoxicity against human A549 cells assessed as cell growth at 10^-8 M after 48 hrs by SRB assay; conditions: A549, 48 h, read-out: Activity
[21] = Cytotoxicity against human OVCAR8 cells assessed as cell growth at 10^-5 M after 48 hrs by SRB assay; conditions: OVCAR-8, 48 h, read-out: Activity
[22] = Cytotoxicity against human COLO205 cells assessed as cell growth at 10^-7 M after 48 hrs by SRB assay; conditions: COLO 205, 48 h, read-out: Activity
[23] = Cytotoxicity against human HCT116 cells assessed as cell growth at 10^-4 M after 48 hrs by SRB assay; conditions: HCT-116, 48 h, read-out: Activity
[24] = Cytotoxicity against human HCT15 cells assessed as cell growth at 10^-5 M after 48 hrs by SRB assay; conditions: HCT-15, 48 h, read-out: Activity
[25] = Cytotoxicity against human HCC2998 cells assessed as cell growth at 10^-6 M after 48 hrs by SRB assay; conditions: HCC 2998, 48 h, read-out: Activity
[26] = Cytotoxicity against human SW620 cells assessed as cell growth at 10^-4 M after 48 hrs by SRB assay; conditions: SW-620, 48 h, read-out: Activity
[27] = test system: K562; test: Cytotoxicity against human K562 cells assessed as cell growth at 10^-7 M after 48 hrs by SRB assay; conditions: K562, 48 h, read-out: Activity
[28] = Cytotoxicity against human TK10 cells assessed as cell growth at 10^-5 M after 48 hrs by SRB assay; conditions: TK-10, 48 h, read-out: Activity
[29] = test system: U-251; test: Cytotoxicity against human U251 cells assessed as cell growth at 10^-8 M after 48 hrs by SRB assay; conditions: U-251, 48 h, read-out: Activity
[30] = Cytotoxicity against human BT549 cells assessed as cell growth at 10^-7 M after 48 hrs by SRB assay; conditions: BT-549, 48 h, read-out: Activity
[31] = test system: SR; test: Cytotoxicity against human SR cells assessed as cell growth at 10^-4 M after 48 hrs by SRB assay; conditions: read-out: Activity
[32] = test system: EKVX; test: Cytotoxicity against human EKVX cells assessed as cell growth at 10^-7 M after 48 hrs by SRB assay; conditions: read-out: Activity
[33] = test system: NCI-H322M; test: Cytotoxicity against human NCI-H322M cells assessed as cell growth at 10^-7 M after 48 hrs by SRB assay; conditions: read-out: Activity
[34] = test system: U-251; test: Cytotoxicity against human U251 cells assessed as cell growth at 10^-5 M after 48 hrs by SRB assay; conditions: U-251, 48 h, read-out: Activity
[35] = test system: CCRF-CEM; test: Cytotoxicity against human CCRF-CEM cells assessed as cell growth at 10^-5 M after 48 hrs by SRB assay; conditions: read-out: Activity
[36] = test system: SK-MEL-2; test: Cytotoxicity against human SK-MEL-2 cells assessed as cell growth at 10^-7 M after 48 hrs by SRB assay; conditions: SK-MEL-2, 48 h, read-out: Activity
[37] = test system: EKVX; test: Cytotoxicity against human EKVX cells assessed as cell growth at 10^-5 M after 48 hrs by SRB assay; conditions: read-out: Activity
[38] = test system: T47D; test: Cytotoxicity against human T47D cells assessed as cell growth at 10^-8 M after 48 hrs by SRB assay; conditions: read-out: Activity
[39] = test system: NCI-H226; test: Cytotoxicity against human NCI-H226 cells assessed as cell growth at 10^-4 M after 48 hrs by SRB assay; conditions: NCI-H226, 48 h, read-out: Activity
[40] = Cytotoxicity against human LOXIMVI cells assessed as cell growth at 10^-5 M after 48 hrs by SRB assay; conditions: LOX IMVI, read-out: Activity
[41] = Cytotoxicity against human BT549 cells assessed as cell growth at 10^-4 M after 48 hrs by SRB assay; conditions: BT-549, 48 h, read-out: Activity
[42] = test system: NCI-H522; test: Cytotoxicity against human NCI-H522 cells assessed as cell growth at 10^-6 M after 48 hrs by SRB assay; conditions: NCI-H522, 48 h, read-out: Activity

For `CCCCCCCCCC(=O)Oc1ccc(/C(=C(/C)c2ccccc2)c2ccc(OCCN3CCCC3)cc2)cc1`, the growth at 5 µM [1] was 78%, the growth at 50 µM [2] was -90% and the growth at 0.005 µM [3] was 101%. For the same molecule, the growth at 5 µM [4] was 96%, the growth at 50 µM [5] was -82% and the growth at 5 µM [6] was 79%. It also gave a growth at 0.005 µM [7] of 100%, a growth at 50 µM [8] of -97% and a growth at 0.5 µM [9] of 60%. It also gave a growth at 5 µM [10] of 85%, a growth at 0.05 µM [11] of 98% and a growth at 0.05 µM [12] of 98%. For the same molecule, the growth at 0.5 µM [13] was 81%, the growth at 0.05 µM [14] was 100% and the growth at 0.5 µM [15] was 96%. The growth at 5 µM [16] was 99% and the growth at 0.005 µM [17] was 94%.
In the case of `C/C(=C(/c1ccc(O)cc1)c1ccc(OCCN2CCCC2)cc1)c1ccccc1`, the growth at 1 µM [18] is reported as 89%, the growth at 100 µM [19] is reported as -82% and the growth at 0.01 µM [20] is reported as 99%. For the same molecule, the growth at 10 µM [21] was 35%, the growth at 0.1 µM [22] was 96% and the growth at 100 µM [23] was -98%. It also gave a growth at 10 µM [24] of -41%, a growth at 1 µM [25] of 94% and a growth at 100 µM [26] of -92%. The growth at 0.1 µM [27] was 96%, the growth at 10 µM [28] was 27% and the growth at 0.01 µM [29] was 103%. It also gave a growth at 0.1 µM [30] of 100%, a growth at 100 µM [31] of -66% and a growth at 0.1 µM [32] of 93%. The growth at 0.1 µM [33] was 95%, the growth at 10 µM [34] was -33% and the growth at 10 µM [35] was -1%. The growth at 0.1 µM [36] was 103%, the growth at 10 µM [37] was 6% and the growth at 0.01 µM [38] was 62%. It also gave a growth at 100 µM [39] of -62%, a growth at 10 µM [40] of -86% and a growth at 100 µM [41] of -100%. The growth at 1 µM [42] was 92%.
